Results on three compounds are retold here after paper PMC4819177, “The rational search for selective anticancer derivatives of the peptide Trichogin GA IV: a multi-technique biophysical approach” (Scientific Reports, 2016).

Series [1] has as its system HeLa cells. Briefly: EPR of TOAC-labelled peptides with intact HeLa cells. It is filed as binding, human. Conditions: 125 μM, 25 nmol per million cells, 15–20 min incubation. From the text: (§1) EPR spectroscopy has been performed on TOAC-labelled analogues to determine the amount of peptide bound to the membrane and to evaluate the peptide dynamics. […] We studied all analogues in buffer solution and in POPC SUV, the same systems used for CD spectroscopy; four selected analogues (see cytotoxicity assay paragraph) were also studied interacting with a suspension of intact cells of the three cell lines. […] Additionally, from the simulations, we determined the value of the Azz hyperfine component that gives an indication of the polarity of the environment. All EPR spectra and simulations are reported in the Supplementary Information (Figs S1–S4), while in Fig. 4, we report an overview of the experiments. In the top part of the figure, we show the spectra of [TOAC^1] TG in buffer solution (blue), in SUV (red), and interacting with T67 cells (magenta). In the bottom part, we show the spectra of the other three peptides, representative of the different degrees of biological activity, interacting with intact T67 cells. […]
(§2) Methanol, 99.9%, spectrophotometric grade, [4-(2-hydroxyethyl)-1-piperazinyl]ethanesulfonic acid (HEPES), and PBS buffer (NaCl 137 mM, KCl 2.7 mM, Na2HPO4 10 mM, KH2PO4 1.8 mM, pH 7.4) were purchased from Sigma-Aldrich. […] The spectra were recorded after 15–20 minutes of incubation of the peptide to the cell suspension. […]

The nature of series [2]: EPR of TOAC-labelled peptides in POPC SUV. It is filed as binding. Particulars: P:L 1:100, 78 μM peptide.
Description: as §1, with “[TOAC^1]” for “[TOAC^1] TG in buffer solution (blue), in SUV (red), and interacting with T67 cells (magenta). In the bottom part, we show the spectra of the other three peptides, representative of the different degrees of biological activity, interacting with intact T67 cells.”
The EPR spectra of all TOAC-labelled peptides recorded in POPC SUV are very similar to each other, and are shown in the Supplementary Information, Fig. S1. […]
(§3) Methanol, 99.9%, spectrophotometric grade, [4-(2-hydroxyethyl)-1-piperazinyl]ethanesulfonic acid (HEPES), and PBS buffer (NaCl 137 mM, KCl 2.7 mM, Na2HPO4 10 mM, KH2PO4 1.8 mM, pH 7.4) were purchased from Sigma-Aldrich. […] The spectra were recorded after 15–20 minutes of incubation of the peptide to the cell suspension. […] The microwave frequency was measured by a frequency counter, HP5342A. […]

For the next series, the system named is T67 cells. Briefly: EPR of TOAC-labelled peptides with intact T67 cells. Particulars: 125 μM, 25 nmol per million cells, 15–20 min incubation. Format: binding, human.
Description: as §1, §2

The next series has as its system HDF cells. Briefly: EPR of TOAC-labelled peptides with intact HDF cells. It is filed as binding, human. Conditions: 125 μM, 25 nmol per million cells, 15–20 min incubation.
Description: as §1, §2

The test system of series [3] is HeLa cells. It is filed as cell-based, human. Particulars: MTT, 24 h exposure; average error about ±2 μM. The protocol:
(§4) We studied the effect of TG and its analogues on normal (HDF) and transformed (T67 and HeLa) cells. The cellular viability was assessed after 24 hours of exposure to the peptides by the MTT assay (Table 1).
(§5) Culture media, foetal bovine serum (FBS) and antibiotics were purchased from Carlo Erba Dasit Group. The T67 human glioma cell line was derived by Lauro et al.[49] from a World Health Organization (WHO) Grade III gemistocytic astrocytoma. Human dermal fibroblasts (HDF) were obtained by ATCC. HDF were cultured in Fibroblast Basal Medium (ATCC) supplemented with 10% FBS. T67 and HeLa cells were cultured in Dulbecco’s modified Eagle’s medium (MMedical) supplemented with 10% FBS, 100 UI/ml penicillin, 100 μg/ml streptomycin, and 40 μg/ml gentamycin, and kept in a 5% CO2 atmosphere at 37 °C, with saturating humidity. Cell viability and number were measured by trypan blue exclusion method.
(§6) Cytotoxicity of peptides was estimated using a MTT assay. All the chemicals used for this assay have been purchased by sigma Aldrich and used without further purification. T67, HeLa and HDF cells were seeded in 24-well plates at 1 × 10^5 cells/well. Experiments were performed after 24 h of incubation at 37 °C in 5% CO2. After this time cells were washed and treated for 24 h with different concentrations of peptides; the cells are then incubated for 60 mins with 300 μM of MTT in culture medium. The absorbance of each well was measured at 450 nm with a spectrofluorometer (Wallac Victor multilabel counter; Perkin-Elmer Inc., Boston, MA, USA). Data are reported as the mean ± standard deviation of at least three independent experiments.

Series [4] relates to human dermal fibroblasts (HDF). It is filed as cell-based. Particulars: MTT, 24 h exposure; average error about ±2 μM. The protocol:
as §4, §5, §6

In series [5] the test system is T67 human glioma cell line. It is filed as cell-based. Conditions: MTT, 24 h exposure; average error about ±2 μM. On the procedure: as §4, §5, §6
For series [6], the system named is suspensions of intact cells (T67, HeLa, HDF). Put plainly: EPR binding to suspensions of intact cells, summary. Details: species or system human. Conditions: over the three cell lines.
Description: The EPR spectra of all peptides interacting with suspensions of intact cells (Fig. S3) show two spectral components: the three sharp lines characteristic of peptides in aqueous solution and the broad lineshape of peptides bound to the membrane. Therefore all peptides are not fully bound to the cell membranes. The presence of two well-defined spectral components implies that the exchange of the peptides between the two phases (membrane and aqueous solution) is slow on the EPR timescale, with a frequency less than ≈1 MHz. The amount of peptide bound to the membrane is obtained from the relative contribution of each spectral component to the total area of the simulated spectrum. A detailed example of the procedure is reported in the Supplementary Information, Fig. S4. The spectra show small variations in binding for the same peptide in different cell lines, and large variations for different peptides in the same cell line. Among the analogues, [TOAC^1, Lys^6] TG and [TOAC^1, Leu^4] […]
as §3

The subject of a further series is T67, HeLa and HDF cells. Briefly: MTT cytotoxicity assay, summary over the three cell lines. Format: cell-based, human. Conditions: 24 h. On the procedure:
as §4, §6
(Tetrazolium assays rely on reduction of a dye to a coloured formazan, in cell work by metabolically active cells.)

For another series, the system named is S. aureus. Conditions: relative to TG; cited from earlier work.

Entries after “also recorded” stand apart in the source; their conditions may differ. Square brackets hold non-standard residues; d marks the D form. Peptide text beside a SMILES is read from it. * marks the point of attachment. TOAC = CC1(C)CC(N)(C(=O)O)CC(C)(C)N1[O]; Leu(ol) = CC(C)C[C@H](N)CO; Octanoyl = CCCCCCCC(=O)*; Api = NC1(C(=O)O)CCNCC1; Aib = CC(C)(N)C(=O)O Bounds are passed on as bounds.

One may read the EC50 as the concentration that produces a half-maximal response. On to `CCCCCCCC(=O)NC1(C(=O)NCC(=O)N[C@@H](CC(C)C)C(=O)NC(C)(C)C(=O)NCC(=O)NCC(=O)N[C@@H](CC(C)C)C(=O)NC(C)(C)C(=O)NCC(=O)N[C@H](C(=O)N[C@H](CO)CC(C)C)[C@@H](C)CC)CC(C)(C)N([O])C(C)(C)C1` [[TOAC^1] TG, Oct-XGLUGGLUGI-Lol] (Octanoyl-[TOAC]GL[Aib]GGL[Aib]GI[Leu(ol)]), for which the “% membrane-bound peptide HeLa” value with HeLa cells [1] is recorded as 78%. The “% membrane-bound peptide POPC SUV” value in [2] is listed as 100%. Also, the “% membrane-bound peptide T67” value in the series on T67 cells is recorded as 85%. Also, the “% membrane-bound peptide HDF” value in the series with HDF cells came out at 84%. The EC50 in the series with HeLa cells [3] came out at 3 µM; in series [4], 5 µM; in [5] it was 1 µM. For the same compound, in [6], the “percentage of peptide bound to cells” value is given as ~ 80%.

As for `CCCCCCCC(=O)NC1(C(=O)NCC(=O)N[C@@H](CC(C)C)C(=O)NC2(C(=O)NCC(=O)NCC(=O)N[C@@H](CC(C)C)C(=O)NC(C)(C)C(=O)NCC(=O)N[C@H](C(=O)N[C@H](CO)CC(C)C)[C@@H](C)CC)CCNCC2)CC(C)(C)N([O])C(C)(C)C1` [[TOAC^1, Api^4] TG, Oct-XGLZGGLUGI-Lol] (Octanoyl-[TOAC]GL[Api]GGL[Aib]GI[Leu(ol)]), the “% membrane-bound peptide HeLa” value in the series on HeLa cells [1] is on record as 21%. For the same compound, the “% membrane-bound peptide POPC SUV” value in series [2] is listed as greater than 99%. In the series on HDF cells, the “% membrane-bound peptide HDF” value is given as 28%. Further, the EC50 (in the series on HeLa cells [3]; in series [4]) was greater than 20 µM throughout. In addition, the “cytotoxicity / selectivity in words” value in the series with T67, HeLa and HDF cells is listed as “selective toxicity; also recorded: selective cytotoxicity towards a cancer cell line”.

Turning to `CCCCCCCC(=O)NC(C)(C)C(=O)NCC(=O)N[C@@H](CC(C)C)C(=O)NC(C)(C)C(=O)N[C@@H](CCCCN)C(=O)N[C@@H](CCCCN)C(=O)N[C@@H](CC(C)C)C(=O)NC(C)(C)C(=O)NCC(=O)N[C@H](C(=O)N[C@H](CO)CC(C)C)[C@@H](C)CC` [[Lys^5,6] TG, Oct-UGLUKKLUGI-Lol], the figures for the EC50 (with HeLa cells [3]; in [4]; in [5]) were 10 µM, 15 µM and 7 µM, respectively. The antibacterial activity result with S. aureus is given as “remarkably increased activity”.
